According to US8598365B2, “Herbicides” (Syngenta Limited, priority 2007, dated 2013):

Tests used:
Assay type in all cases: in vivo
[1] = tested on: Digitaria sanguinalis (DIGSA); assay: Example A post-emergence herbicidal activity; settings: rate 125 g/ha, evaluated 14 or 15 days later
Procedure: (§1) Seeds of a variety of test species were sown in standard soil in pots. After cultivation for one day (pre-emergence) or after 10 days cultivation (post-emergence) under controlled conditions in a glasshouse, the plants were sprayed with an aqueous spray solution derived from the formulation of the technical active ingredient in 0.6 ml acetone and 45 ml formulation solution containing 10.6% Emulsogen EL (Registry number 61791-12-6), 42.2% N-methylpyrrolidone, 42.2% dipropylene glycol monomethyl ether (Registry number 34590-94-8) and 0.2% X-77 (Registry number 11097-66-8). The test plants were then grown in a greenhouse under optimum conditions until, 14 or 15 days later for post-emergence and 19 or 20 days for pre-emergence, the test was evaluated (100=total damage to plant; 0=no damage to plant). Alopecurus myosuroides (ALOMY), Avena fatua (AVEFA), Lolium perenne (LOLPE), Setaria faberi (SETFA), Digitaria sanguinalis (DIGSA), Echinochloa crus-galli (ECHCG)

[2] = tested on: Setaria faberi (SETFA); assay: Example A post-emergence herbicidal activity; settings: rate 125 g/ha, evaluated 14 or 15 days later
Procedure: as §1

[3] = tested on: Lolium perenne (LOLPE); assay: Example A post-emergence herbicidal activity; settings: rate 125 g/ha, evaluated 14 or 15 days later
Procedure: as §1

[4] = tested on: Alopecurus myosuroides (ALOMY); assay: Example A post-emergence herbicidal activity; settings: rate 125 g/ha, evaluated 14 or 15 days later
Procedure: as §1

[5] = tested on: Echinochloa crus-galli (ECHCG); assay: Example A post-emergence herbicidal activity; settings: rate 125 g/ha, evaluated 14 or 15 days later
Procedure: as §1

[6] = tested on: Avena fatua (AVEFA); assay: Example A post-emergence herbicidal activity; settings: rate 125 g/ha, evaluated 14 or 15 days later
Procedure: as §1

[7] = tested on: Digitaria sanguinalis (DIGSA); assay: Example A pre-emergence herbicidal activity; settings: rate 250 g/ha, evaluated 19 or 20 days later
Procedure: as §1

[8] = tested on: Setaria faberi (SETFA); assay: Example A pre-emergence herbicidal activity; settings: rate 250 g/ha, evaluated 19 or 20 days later
Procedure: as §1

[9] = tested on: Lolium perenne (LOLPE); assay: Example A pre-emergence herbicidal activity; settings: rate 250 g/ha, evaluated 19 or 20 days later
Procedure: as §1

[10] = tested on: Alopecurus myosuroides (ALOMY); assay: Example A pre-emergence herbicidal activity; settings: rate 250 g/ha, evaluated 19 or 20 days later
Procedure: as §1

[11] = tested on: Echinochloa crus-galli (ECHCG); assay: Example A pre-emergence herbicidal activity; settings: rate 250 g/ha, evaluated 19 or 20 days later
Procedure: as §1

[12] = tested on: Avena fatua (AVEFA); assay: Example A pre-emergence herbicidal activity; settings: rate 250 g/ha, evaluated 19 or 20 days later
Procedure: as §1

Structure (SMILES)	Post-Emergence Activity DIGSA (100=total damage to plant; 0=no damage to plant) [1]	Post-Emergence Activity SETFA (100=total damage to plant; 0=no damage to plant) [2]	Post-Emergence Activity LOLPE (100=total damage to plant; 0=no damage to plant) [3]	Post-Emergence Activity ALOMY (100=total damage to plant; 0=no damage to plant) [4]	Post-Emergence Activity ECHCG (100=total damage to plant; 0=no damage to plant) [5]	Post-Emergence Activity AVEFA (100=total damage to plant; 0=no damage to plant) [6]	Pre-Emergence Activity DIGSA (100=total damage to plant; 0=no damage to plant) [7]	Pre-Emergence Activity SETFA (100=total damage to plant; 0=no damage to plant) [8]	Pre-Emergence Activity LOLPE (100=total damage to plant; 0=no damage to plant) [9]	Pre-Emergence Activity ALOMY (100=total damage to plant; 0=no damage to plant) [10]	Pre-Emergence Activity ECHCG (100=total damage to plant; 0=no damage to plant) [11]	Pre-Emergence Activity AVEFA (100=total damage to plant; 0=no damage to plant) [12]
COc1ccc(-c2nc(C3C(=O)[C@@H]4CC[C@@H](C4)C3=O)c(C)s2)cn1 (stereo partly drawn) [Compound T18]	60	60	20	40	50	30	30	20	0	0	20	0
CCc1sc(-c2ccc(Cl)cc2)nc1C1C(=O)[C@@H]2CC[C@@H](C2)C1=O (stereo partly drawn) [Compound T19, 3-[2-(4-chlorophenyl)-5-ethylthiazol-4-yl]bicyclo[3.2.1]octane-2,4-dione]	100	100	80	100	100	100	100	100	100	100	100	100
Cc1sc(-c2ccc(Cl)cc2)cc1C1C(=O)[C@@H]2CC[C@@H](C2)C1=O (stereo partly drawn) [Compound T23]	90	100	70	80	90	70	0	0	0	30	0	50
